Values of other authors in patent US9248112B2, “Hemodialysis and peritoneal dialysis solutions comprising one or more creatine compounds” (CREARENE LTD., priority 2009, dated 2016).
Like-named read-outs stand apart in the source and are kept apart here.

Experiments:
[1] = not given; remark: listed apart in the source
[2] = biological target: T1, creatine transporter protein (CrT) (Homo sapiens, UniProt P48029); settings: CrT in the plasma membrane
T1 sequence (P48029 1-635): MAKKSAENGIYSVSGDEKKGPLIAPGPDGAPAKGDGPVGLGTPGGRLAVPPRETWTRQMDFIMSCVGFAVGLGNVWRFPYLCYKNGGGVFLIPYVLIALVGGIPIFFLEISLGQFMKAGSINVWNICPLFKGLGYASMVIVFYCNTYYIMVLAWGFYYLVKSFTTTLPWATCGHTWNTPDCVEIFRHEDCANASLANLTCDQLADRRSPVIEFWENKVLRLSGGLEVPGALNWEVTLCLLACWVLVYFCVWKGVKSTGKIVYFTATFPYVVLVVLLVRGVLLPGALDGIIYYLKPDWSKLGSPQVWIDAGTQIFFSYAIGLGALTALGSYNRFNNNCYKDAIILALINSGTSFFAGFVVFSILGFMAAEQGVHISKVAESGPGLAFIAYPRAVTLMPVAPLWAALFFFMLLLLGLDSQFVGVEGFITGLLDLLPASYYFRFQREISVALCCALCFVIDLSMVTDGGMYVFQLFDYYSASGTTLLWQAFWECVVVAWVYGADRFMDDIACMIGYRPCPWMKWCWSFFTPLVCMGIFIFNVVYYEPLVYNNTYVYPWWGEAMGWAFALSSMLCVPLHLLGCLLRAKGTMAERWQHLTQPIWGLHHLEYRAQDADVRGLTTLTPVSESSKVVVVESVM

[3] = peritoneal dialysis solution, 37° C.
homocysteine [4] = tested on: homocysteine
homocysteine [5] = settings: animal model
[6] = not given; remark: listed apart in the source
[7] = adults, clinical studies

CN(CC(=O)O)C(=N)N.O [creatine monohydrate]
stability in acidic aqueous solutions (acidic aqueous solutions, temperatures over 60° C.): some instability | storage stability in solution (neutral pH, cooled): can be stored for thirty days without losses | decrease in muscle cramps ([1]; 12 g orally 5 minutes before hemodialysis, four week treatment): 60% | serum creatinin after treatment ([1]; after four week treatment period, 12 g orally before hemodialysis): 12.4 mg/dL | serum creatinin before treatment ([1]; start of four week treatment period): 10.7 mg/dL

CN(CC(=O)O)C(=N)N [creatine]
Km [2]: 25 to 30 µM | concentration near the saturation limit of creatine [3]: 24-25 g per liter | homocystein levels (homocysteine [4]; 2 g/day, additionally vitamin B supplemented subjects): no such effects were seen | homocystein levels (homocysteine [4]; humans, approximately 5 g Cr/day): reduction of homocystein levels | serum levels of homocysteine (homocysteine [5]): reduce serum levels | serum creatine concentration ([6]; after a single oral dose of 5-20 g of creatine): 1-2 mM/l | time to reach maximal levels in the blood stream ([6]; ingested (oral) creatine): two to four | safe daily intake [7]: up to 20 g daily
